Laboratory results as given in ChEMBL document CHEMBL3734692, “Design and synthesis of 2-oxindole based multi-targeted inhibitors of PDK1/Akt signaling pathway for the treatment of glioblastoma multiforme” (Eur J Med Chem, 2015).

Tests used:
[1] = target: Casein kinase I isoform alpha (Homo sapiens) (UniProt P48729); test: Inhibition of CK1alpha1 (unknown origin) at 1 uM by selectscreen kinase profiling assay in presence of ATP
[2] = Antiproliferative activity against human ANGM-CSS cells assessed as inhibition of cell growth after 96 hrs by WST1 assay; type: functional
[3] = target: Dual specificity mitogen-activated protein kinase kinase 1 (Homo sapiens) (UniProt Q02750); test: Inhibition of MEK1 (unknown origin) at 1 uM by selectscreen kinase profiling assay in presence of ATP
Chain of Dual specificity mitogen-activated protein kinase kinase 1 (Homo sapiens) (Q02750 whole entry): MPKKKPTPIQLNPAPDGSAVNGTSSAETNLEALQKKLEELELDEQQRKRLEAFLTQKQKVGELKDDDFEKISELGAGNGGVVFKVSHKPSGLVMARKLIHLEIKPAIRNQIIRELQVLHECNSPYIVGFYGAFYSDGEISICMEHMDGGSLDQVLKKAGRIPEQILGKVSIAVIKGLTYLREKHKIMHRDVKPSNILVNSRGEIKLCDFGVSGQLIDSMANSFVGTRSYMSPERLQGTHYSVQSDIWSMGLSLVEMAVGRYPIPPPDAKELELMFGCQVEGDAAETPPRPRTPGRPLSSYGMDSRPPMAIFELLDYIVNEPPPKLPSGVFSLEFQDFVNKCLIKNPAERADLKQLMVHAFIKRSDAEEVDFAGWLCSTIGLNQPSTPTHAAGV

ANGM-CSS [4] = test: Antiproliferative activity against human ANGM-CSS cells assessed as inhibition of cell growth after 72 to 144 hrs by WST1 assay; type: functional, cell-based
ANGM-CSS [5] = test: Antiproliferative activity against human GSC derived from ANGM-CSS cells after 7 days by MTS assay; type: functional, cell-based

Chain of Casein kinase I isoform alpha (Homo sapiens) (P48729 2-337 limits assumed): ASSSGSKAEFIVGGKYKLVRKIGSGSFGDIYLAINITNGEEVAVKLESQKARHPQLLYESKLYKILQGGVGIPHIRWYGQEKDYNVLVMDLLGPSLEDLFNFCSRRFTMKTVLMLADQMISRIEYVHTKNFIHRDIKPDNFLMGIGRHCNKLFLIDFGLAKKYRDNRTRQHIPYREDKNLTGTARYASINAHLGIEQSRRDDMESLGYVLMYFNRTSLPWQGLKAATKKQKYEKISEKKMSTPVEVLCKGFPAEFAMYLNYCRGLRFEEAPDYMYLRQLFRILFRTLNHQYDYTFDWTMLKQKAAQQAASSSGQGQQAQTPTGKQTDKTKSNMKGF

With `COc1cc2c(cc1OC)CN(CC(=O)Nc1ccc3c(c1)/C(=C/c1cnc[nH]1)C(=O)N3)CC2` as the molecule, how does the inhibition [1] read?
The inhibition was 4%.

What about the GI50 [2] of the same molecule?
The GI50 was 7.5 µM.

And the inhibition [3]?
Its inhibition is 37%.

And the “growth inhibition (GI)” value (ANGM-CSS [4])?
The value was “Dose-dependent effect”.

And the inhibition (ANGM-CSS [5])?
Its inhibition is “Dose-dependent effect”.
